Laboratory results from BigSolDB 2.1.

COC1=CC(=O)C[C@@H](C)[C@]12Oc1c(Cl)c(OC)cc(OC)c1C2=O
Settings	solubility (mole fraction)
in 1,2-dichloroethane, 290.05 K	0.0197
in 1,2-dichloroethane, 294.3 K	0.0209
in 1,2-dichloroethane, 300.25 K	0.0222
in 1,2-dichloroethane, 305.55 K	0.0236
in 1,2-dichloroethane, 310.05 K	0.0251
in 1,2-dichloroethane, 315.65 K	0.0268
in 1,2-dichloroethane, 319.35 K	0.0289
in 1,2-dichloroethane, 324.05 K	0.0311
in 1,2-dichloroethane, 329.65 K	0.0335
in 2-butanone, 289.65 K	0.00826
in 2-butanone, 296.95 K	0.00941
in 2-butanone, 302.95 K	0.0103
in 2-butanone, 308.25 K	0.0117
in 2-butanone, 315.05 K	0.0128
in 2-butanone, 320.4 K	0.0141
in 2-butanone, 325.45 K	0.0151
in 2-butanone, 330.35 K	0.0163
in DMAc, 296.2 K	0.0252
in DMAc, 301.25 K	0.0276
in DMAc, 305.75 K	0.0303
in DMAc, 310.75 K	0.0326
in DMAc, 314.95 K	0.0344
in DMAc, 319.25 K	0.0369
in DMAc, 324.75 K	0.0395
in DMAc, 330.05 K	0.0422
in DMAc, 336.15 K	0.0452
in DMAc, 340.25 K	0.0488
in DMAc, 345.75 K	0.0518
in DMAc, 350.55 K	0.0549
in DMAc, 354.78 K	0.0582
in DMSO, 296.75 K	0.0167
in DMSO, 301.15 K	0.0186
in DMSO, 306.15 K	0.0204
in DMSO, 310.85 K	0.0218
in DMSO, 315.55 K	0.0239
in DMSO, 320.55 K	0.026
in DMSO, 326.55 K	0.0282
in DMSO, 331.95 K	0.0302
in DMSO, 336.75 K	0.0324
in DMSO, 341.05 K	0.0345
in DMSO, 346.25 K	0.0368
in DMSO, 351.7 K	0.0393
in DMSO, 357.6 K	0.0415
in NMP, 295.55 K	0.0421
in NMP, 300.65 K	0.0451
in NMP, 305.75 K	0.048
in NMP, 310 K	0.0511
in NMP, 315.1 K	0.0541
in NMP, 320.6 K	0.057
in NMP, 325.45 K	0.0601
in NMP, 330.45 K	0.0631
in NMP, 335.55 K	0.0666
in NMP, 340.35 K	0.0704
in NMP, 345.55 K	0.0758
in NMP, 350.35 K	0.0795
in NMP, 355.65 K	0.083
in acetone, 281.95 K	0.00648
in acetone, 286.4 K	0.0071
in acetone, 291.85 K	0.00776
in acetone, 296.4 K	0.00853
in acetone, 300.8 K	0.00941
in acetone, 305.05 K	0.0102
in acetone, 310.25 K	0.0117
in acetone, 313.65 K	0.0129
in acetone, 317.05 K	0.0143
